How the values were obtained:
[1] = system: secretion of gastric acid; assay: Inhibitory effect on the secretion of gastric acid in rats (Example 7); assay type: in vivo, rats (Wister line); conditions: peptide 10 μg/kg with gastrin 4 μg/kg, hypodermic injection, gastric juice pH 10 minutes later, control pH 3.2 / 3.1
Procedure: The inhibitory effect on the secretion of gastric acid was evaluated using rats (Wister line), by dissolving in physiological saline, the peptides synthesized in Example 6 and gastrin, a stimulator of gastric acid secretion, hypodermically injecting the previous solution, and measuring the secretion of gastric acid 10 minutes later. Gastrin was administered to obtain a dose of 4 μg/kg and the peptides of the invention were administered to obtain a dose of 10 μg/kg. The rats were immobilized on a fixator, their gastric juice was sampled by inserting a probe through the mouth into the stomach, and the pH was measured to evaluate the secretion of gastric acid. When the secretion of gastric acid was compared between the reference group with no substance administered and the administered group, the following was obtained for the inhibition on the secretion of gastric acid.

BxPC-3 cells [2] = assay: Stimulating effect on insulin secretion, BxPC-3 cells (Example 3); assay type: cell-based, human; conditions: supernatant of BxPC-3 cells, 0.01 mg/well, 24 hours; control 37.6
Procedure: BxPC-3 cells which are insulin producing cells derived from a human pancreas (source: Dainippon Pharmaceutical Co.,Ltd. ), were cultured in RPMI 1640 media containing 10% calf fetal serum, and grown with 5% carbon dioxide gas in a humidified incubator at 37° C. The cells were treated with trypsin prior to seeding with a density of 1×10^5/well; when they reached confluency, the peptide of the invention synthesized in Example 2, the peptides A and B, which are unrelated to the invention and whose activities are unknown, as well as a control (physiological saline) were added at 0.01 mg/well, and the cells were cultured for 24 hours. Then, the concentrations of insulin present in the supernatents were measured by colorimetry with an insulin assaying kit (source: Shibayagi Co.,Ltd.).

HIT cells = assay: Stimulation of insulin production by insulin producing cells, HIT cells (Example 5); assay type: cell-based, hamster; conditions: for rate of stimulation for the production of insulin (%): HIT cells, 12 hours, no substance added = 100%
Procedure: (§1) HIT cells, which are insulin producing hamster pancreatic cells, and BxPC-3 cells, which are human pancreatic cells (source: Dai Nippon Seiyaku), were cultured in RPMI 1640 media (source: Dai Nippon Seiyaku) containing 10% calf fetal serum, and grown with 5% carbon dioxide gas in a humidified incubator at 37° C. The cells were treated with trypsin for seeding 96-well culture plates with a density of 1×10^4/well; when the cells reached confluency, the media was exchanged to a F12 serum-free media and the cells were cultured for 8 hours. Then, the peptides of the invention produced in Example 4 were dissolved in serum-free RPMI 1640 media; various doses of the peptides indicated by the sequence number 1 for the HIT cells, and various doses of the peptides indicated by the sequence number 5 for the BxPC-3 cells, were added to the wells and the cultures were further maintained for 12 hours. After the cultures have been performed, the stimulatory effects of the peptides of the invention on the production of insulin by the cells were measured by the insulin immunoassay, to seek stimulatory effects on production in comparison to the non-treated groups. Also, the insulin immunoassay, and the calculations for the rates of stimulation for the production of insulin were actually performed as follows. Various dilutions of the supernatents from the cell culture media were added to the wells coated with immobilized anti-insulin antibodies, and reacted with anti-insulin antibody solutions, according to the protocol of the insulin assay kit commercialized by Shibayagi (Ltd.). The detection was by reacting the biotin labeling the antibodies with the steptavidin-conjugated peroxydase and measuring the coloration catalyzed by the peroxydase. The concentration of insulin was calculated from a standard curve for insulin. When examining the rates of stimulation for the production of insulin in the groups with various doses added, by taking the rate of stimulation for the production of insulin in the reference group with no substance added as 100%, the following was obtained.

BxPC-3 cells [3] = assay: Stimulation of insulin production by insulin producing cells, BxPC-3 cells (Example 5); assay type: cell-based, human; conditions: 12 hours, no substance added = 100%
Procedure: as §1

GH3 cells = assay: Stimulation of growth hormone production by growth hormone producing cells (Example 9); assay type: cell-based, Hamster; conditions: 3 days, no peptides added = 100%
Procedure: Hamster-derived GH3 cells (source: IFO, deposition No. 50105), which are growth hormone-producing hypophyseal cells, were grown in an F12 media (source: Dai Nippon Seiyaku) containing 15% calf fetal serum, and grown with 5% carbon dioxide gas in a humidified incubator at 37° C. The cells were treated with trypsin for seeding 96-well culture plates with a density of 1×10^4/well; when the cells reached confluency, the media was exchanged to a 15% serum F12 media and the cells were cultured for 12 hours. Then, the peptides of the invention produced in Example 7 were dissolved in 15% serum F12 media to add various doses of the peptides to the wells, and the cultures were further maintained for 3 days. After the cultures have been performed, the stimulatory effects of the peptides on the production of growth hormones by the cells were measured by the growth hormone immunoassay, to examine stimulatory the effects on the production, in comparison with the non-treated groups. Also, the growth hormone immunoassay was performed with a method of the art, the sandwich ELISA, i.e., various dilutions of the supernatents from the cell culture media were added to wells coated with immobilized anti-growth hormone antibodies, and reacted for 180 minutes at room temperature, washed before further addition of anti-growth hormone antibodies labeled with peroxydase, and reacted for 60 minutes at room temperature. After washing, the coloring reaction catalyzed by the peroxydase was measured by measuring the absorbance. The concentration of growth hormone was examined based on standard curves obtained by performing the same sandwich ELISA using already known concentrations of growth hormone. When examining the rates of stimulation for the production of growth hormones in the groups with various doses added, by taking the rate of stimulation for the production of growth hormone for the reference group with no peptides added as 100%, the following was obtained.

Q: How did the “Gastric juice pH” value [1] turn out when “Sequence No. 3: peptide predicted by comparing the cDNA sequences of the gastrin receptor; gastric acid secretion regulator (GGAGP; Artificial polypeptide which regulates insulin production.)” was run?
A: 5.3 pH

Q: “Sequence No. 4: peptide predicted by comparing the cDNA sequences of the gastrin receptor; gastric acid secretion regulator (MSVGGNMLIIV; Artificial polypeptide having inhibitory effect on gastric acid secretion)” was tested. Which “Gastric juice pH” value [1] did it give?
A: 4.8 pH

Q: “peptide of the invention: peptide synthesized in Example 2, printed as having the amino acid sequence of sequence number 2 (GIP receptor derived insulin production regulator) (VGRDPAAAPALWRRRGTAPPLSAIVSQV; Artificial peptide which regulates insulin production)” was tested. Which insulin concentration (BxPC-3 cells [2]) did it give?
A: 148 µg/mL

Q: With “sequence number 1: peptide of the missing (spliced) region predicted from glucagon receptor cDNAs; increases insulin production (PKAPSAQ; Artificial polypeptide which inhibits insulin production.)” as the substance, how does the “rate of stimulation for the production of insulin (%)” value (“rate of stimulation … (%)” below) (HIT cells; 0.01 μg/well) read?
A: 102.8%

Q: And the “rate of stimulation … (%)” value (HIT cells; 0.1 μg/well)?
A: 131.6%

Q: And the “rate of stimulation … (%)” value (HIT cells; 1 μg/well)?
A: 184.9%

Q: And the “rate of stimulation … (%)” value (HIT cells; 10 μg/well)?
A: 203.1%

Q: What about the “production of insulin by insulin producing cells” value (HIT cells; summary in the description, cells and dose not named) of the same substance?
A: increased significantly

Q: How did the “rate of stimulation … (%)” value (BxPC-3 cells [3]; 0.01 μg/well) turn out when “sequence number 5: peptide predicted from glucagon receptor cDNAs, variant of sequence number 1; increases insulin production (PQVPSAQ; Artificial polypeptide having inhibitory effects on insulin secretion)” was run?
A: 110.9%

Q: What about the “rate of stimulation … (%)” value (BxPC-3 cells [3]; 0.1 μg/well) of the same substance?
A: 123.3%

Q: And the “rate of stimulation … (%)” value (BxPC-3 cells [3]; 1 μg/well)?
A: 198.2%

Q: And the “rate of stimulation … (%)” value (BxPC-3 cells [3]; 10 μg/well)?
A: 181.1%

Q: For “sequence number 6: peptide predicted by comparing the amino acid sequences of somatostatin receptor; growth hormone production regulator (PSCQWVQAPACQ; Artificial polypeptide which promotes growth hormone secretion.)”, which “stimulation rate of growth hormone production (%)” value (“stimulation rate … (%)” below) (GH3 cells; 0.01 μg/well) is on record?
A: 101.2%

Q: What about the “stimulation rate … (%)” value (GH3 cells; 0.1 μg/well) of the same substance?
A: 124.1%

Q: What about the “stimulation rate … (%)” value (GH3 cells; 1 μg/well) of the same substance?
A: 175.6%

Q: And the “stimulation rate … (%)” value (GH3 cells; 10 μg/well)?
A: 190.4%

Reference: patent publication US7198782B2, “Method for the treatment of diabetes” (priority 1998, dated 2007)
